Read-outs that look alike come from different tables or passages of the source.

In one experiment the test system is Mino cells. Put plainly: Antiproliferative effect, MTS cell viability assay, Mino cells. The following applies: Mino mantle cell lymphoma cells, read-out: IC50 (anti-proliferation) Mino cells. In kind it is cell-based. Summed up: (§1)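 Tested at six concentrations (0 to 10 μM in tenfold steps), 72 h; viability by MTS, A490.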
For orientation: Tetrazolium dyes change colour on reduction, which living cells bring about.

A further experiment concerns JeKo-1 cells. Put plainly: Antiproliferative effect, MTS cell viability assay, JeKo-1 cells. It counts as cell-based. The following applies: JeKo-1 mantle cell lymphoma cells, read-out: IC50 (anti-proliferation) JeKO-1 cells. The method, boiled down:
as §1

In another experiment the target is BTK (Homo sapiens, UniProt Q06187). Nature of the experiment: Degradation of BTK protein in Namalwa cells (Western blot; DC50, Dmax). In general terms: In western blotting, separated proteins are transferred to a membrane and probed.
The mark [1] stands for this setting: BTK degradation, cell line not given.
[2] abbreviates: read-out: DC50 (BTK degradation), concentration giving 50% reduction of BTK expression level, cell line not given.
The mark [3] stands for this setting: read-out: Dmax (BTK degradation).

Chain of BTK (Q06187 whole entry): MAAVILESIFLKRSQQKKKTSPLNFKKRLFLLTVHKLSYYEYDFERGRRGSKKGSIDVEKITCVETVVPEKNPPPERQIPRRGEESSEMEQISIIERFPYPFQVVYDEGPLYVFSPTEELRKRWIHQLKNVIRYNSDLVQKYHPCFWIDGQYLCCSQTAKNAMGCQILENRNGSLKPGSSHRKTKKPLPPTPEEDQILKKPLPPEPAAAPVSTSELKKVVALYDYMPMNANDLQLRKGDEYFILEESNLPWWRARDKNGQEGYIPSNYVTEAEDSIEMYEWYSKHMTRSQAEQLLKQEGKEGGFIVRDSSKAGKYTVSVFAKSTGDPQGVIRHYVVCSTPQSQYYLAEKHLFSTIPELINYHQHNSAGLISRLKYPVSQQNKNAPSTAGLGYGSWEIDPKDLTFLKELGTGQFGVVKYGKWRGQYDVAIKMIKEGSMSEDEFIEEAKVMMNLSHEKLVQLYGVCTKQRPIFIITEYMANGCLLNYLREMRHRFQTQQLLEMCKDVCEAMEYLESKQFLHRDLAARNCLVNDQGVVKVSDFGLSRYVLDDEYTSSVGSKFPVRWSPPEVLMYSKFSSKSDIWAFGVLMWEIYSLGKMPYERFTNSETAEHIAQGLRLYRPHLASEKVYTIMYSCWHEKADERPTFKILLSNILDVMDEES

As to `Nc1ncnc2c1c(-c1ccc(Oc3ccccc3)cc1)nn2C1CCN(C2CCN(C(=O)N3CCN(c4ccc5c(c4)C(=O)N(C4CCC(=O)NC4=O)C5=O)CC3)CC2)CC1` (stereo not drawn) [Compound 229, 5-(4-(4-(4-amino-3-(4-phenoxyphenyl)-1H-pyrazolo[3,4-d]pyrimidin-1-yl)-[1,4′-bipiperidine]-1′-carbonyl)piperazin-1-yl)-2-(2,6-dioxopiperidin-3-yl)isoindoline-1,3-dione], the IC50 in the experiment with Mino cells (Homo sapiens, MINO) is > 10000 nM; in the experiment with JeKo-1 cells (Homo sapiens), 1000 to 10000 nM. For the same compound, the greatest degradation seen (Dmax) on BTK was > 50%. Moreover, on BTK (setting [1]), the DC50 was > 50 nM.

As to `Nc1ncnc2c1c(-c1ccc(Oc3ccccc3)cc1)nn2C1CCN(CCN2CCC(N3CCN(c4ccc5c(c4)C(=O)N(C4CCC(=O)NC4=O)C5=O)CC3)C2)CC1` (single isomer, unassigned) [Compound 459b, 5-(4-(1-(2-(4-(4-amino-3-(4-phenoxyphenyl)-1H-pyrazolo[3,4-d]pyrimidin-1-yl)piperidin-1-yl)ethyl)pyrrolidin-3-yl)piperazin-1-yl)-2-(2,6-dioxopiperidin-3-yl)isoindoline-1,3-dione], the IC50 with Mino cells and with JeKo-1 cells was < 1000 nM each time. At BTK (cell line not given), the “Dmax (BTK degradation)” value is recorded as “A (A >90%)”. In addition, the DC50 on BTK (setting [2]) was < 10 nM.

In the case of `Nc1ncnc2c1c(-c1ccc(Oc3ccccc3)cc1)nn2C1CCN(C2CCN(CCN3CCN(c4ccc(N5CCC(=O)NC5=O)cc4)CC3)C2)CC1` (stereo not drawn) [Compound 575, 1-(4-(4-(2-(3-(4-(4-amino-3-(4-phenoxyphenyl)-1H-pyrazolo[3,4-d]pyrimidin-1-yl)piperidin-1-yl)pyrrolidin-1-yl)ethyl)piperazin-1-yl)phenyl)dihydropyrimidine-2,4(1H,3H)-dione], the IC50 lay in the range of 1000 to 10000 nM with Mino cells (Homo sapiens, MINO) and 1000 to 10000 nM in the experiment with JeKo-1 cells (Homo sapiens). Also, the DC50 at BTK (setting [2]) was < 10 nM. Besides, the Dmax at BTK (setting [3]) was > 90%.

For the compound `Nc1ncnc2c1c(-c1ccc(Oc3ccccc3)cc1)nn2C1CCN(CC2CCN(CCCN3CCC(c4ccc5c(c4)C(=O)N(C4CCC(=O)NC4=O)C5=O)CC3)CC2)CC1` (stereo not drawn) [Compound 209, 5-(1-(3-(4-((4-(4-amino-3-(4-phenoxyphenyl)-1H-pyrazolo[3,4-d]pyrimidin-1-yl)piperidin-1-yl)methyl)piperidin-1-yl)propyl)piperidin-4-yl)-2-(2,6-dioxopiperidin-3-yl)isoindoline-1,3-dione], the IC50 in the experiment on Mino cells (Homo sapiens, MINO) is > 10000 nM; in the experiment on JeKo-1 cells (Homo sapiens), > 10000 nM. Besides, on BTK, the Dmax was > 75%. This compound also yielded a DC50 at BTK (setting [1]) of 10 to 50 nM.

Turning to `NC(=O)c1c(-c2ccc(Oc3ccccc3)cc2)nn2c1NCC[C@H]2C1CCN(C(=O)N2CCC(CCN3CCC(c4ccc5c(c4)C(=O)N(C4CCC(=O)NC4=O)C5=O)CC3)CC2)CC1` (stereo partly drawn) [Compound 301, (7S)-7-(1-(4-(2-(4-(2-(2,6-dioxopiperidin-3-yl)-1,3-dioxoisoindolin-5-yl)piperidin-1-yl)ethyl)piperidine-1-carbonyl)piperidin-4-yl)-2-(4-phenoxyphenyl)-4,5,6,7-tetrahydropyrazolo[1,5-a]pyrimidine-3-carboxamide], the IC50 lay within 1000 to 10000 nM in the experiment on Mino cells (Homo sapiens, MINO) and 1000 to 10000 nM in the experiment with JeKo-1 cells (Homo sapiens). Further, the Dmax at BTK was > 75%. On BTK (setting [1]), this compound had a 50% degradation concentration (DC50) of 10 to 50 nM.

For `Nc1ncnc2c1c(-c1ccc(Oc3ccccc3)cc1)nn2C1CCN(C2CCN(CCN3CCC(c4ccc(N5CCC(=O)NC5=O)cc4)CC3)C2)CC1` (stereo not drawn) [Compound 574, 1-(4-(1-(2-(3-(4-(4-amino-3-(4-phenoxyphenyl)-1H-pyrazolo[3,4-d]pyrimidin-1-yl)piperidin-1-yl)pyrrolidin-1-yl)ethyl)piperidin-4-yl)phenyl)dihydropyrimidine-2,4(1H,3H)-dione], the IC50 in the experiment on Mino cells (Homo sapiens, MINO) fell in the range of 1000 to 10000 nM; in the experiment with JeKo-1 cells (Homo sapiens) it was 1000 to 10000 nM. In addition, the DC50 on BTK (setting [2]) is 10 to 50 nM. Further, the Dmax on BTK (setting [3]) was > 90%.

On to `Nc1ncnc2c1c(-c1ccc(Oc3ccccc3)cc1)nn2C1CCN(CCC#Cc2ccc(N3CCC(=O)NC3=O)cc2)CC1` [Compound 540, 1-(4-(4-(4-(4-amino-3-(4-phenoxyphenyl)-1H-pyrazolo[3,4-d]pyrimidin-1-yl)piperidin-1-yl)but-1-yn-1-yl)phenyl)dihydropyrimidine-2,4(1H,3H)-dione], for which the IC50 with Mino cells (Homo sapiens, MINO) is > 10000 nM; in the experiment on JeKo-1 cells (Homo sapiens), > 10000 nM. Besides, the DC50 on BTK (setting [2]) was > 50 nM. For the same compound, on BTK (setting [3]), the Dmax is > 50%.

On to `NC(=O)c1c(-c2ccc(Oc3ccccc3)cc2)nn2c1NCCC2C1CCN(C2CCN(C(=O)N3CCC(C4CCN(c5ccc6c(c5)CN(C5CCC(=O)NC5=O)C6=O)CC4)CC3)CC2)CC1` (stereo not drawn) [Compound 344, 7-(1′-(1′-(2-(2,6-dioxopiperidin-3-yl)-1-oxoisoindolin-5-yl)-[4,4′-bipiperidine]-1-carbonyl)-[1,4′-bipiperidin]-4-yl)-2-(4-phenoxyphenyl)-4,5,6,7-tetrahydropyrazolo[1,5-a]pyrimidine-3-carboxamide], for which the IC50 in the experiment on Mino cells (Homo sapiens, MINO) is 1000 to 10000 nM; with JeKo-1 cells (Homo sapiens), < 1000 nM. Further, the Dmax at BTK is > 90%. In addition, at BTK (setting [1]), the DC50 is < 10 nM.

Take `Nc1ncnc2c1c(-c1ccc(Oc3ccccc3)cc1)nn2C1CCN(CC2CCN(CCN3CCN(c4ccc5c(c4)C(=O)N(C4CCC(=O)NC4=O)C5=O)CC3)CC2)CC1` (stereo not drawn) [Compound 203, 5-(4-(2-(4-((4-(4-amino-3-(4-phenoxyphenyl)-1H-pyrazolo[3,4-d]pyrimidin-1-yl)piperidin-1-yl)methyl)piperidin-1-yl)ethyl)piperazin-1-yl)-2-(2,6-dioxopiperidin-3-yl)isoindoline-1,3-dione]: the IC50 was in the range of 1000 to 10000 nM in the experiment with Mino cells (Homo sapiens, MINO) and 1000 to 10000 nM in the experiment with JeKo-1 cells (Homo sapiens). On BTK, the Dmax is > 90%. This compound yielded a 50% degradation concentration (DC50) at BTK (setting [1]) of 10 to 50 nM.

As for `Nc1ncnc2c1c(-c1ccc(Oc3ccccc3)cc1)nn2[C@@H]1CCCN(CCNC(=O)NC2CCC(=O)NC2=O)C1` (stereo partly drawn) [Compound 519, 1-(2-((R)-3-(4-amino-3-(4-phenoxyphenyl)-1H-pyrazolo[3,4-d]pyrimidin-1-yl)piperidin-1-yl)ethyl)-3-(2,6-dioxopiperidin-3-yl)urea], the IC50 is > 10000 nM in the experiment on Mino cells (Homo sapiens, MINO) and 1000 to 10000 nM with JeKo-1 cells (Homo sapiens). Besides, the DC50 on BTK (setting [2]) was in the range of 10 to 50 nM. The Dmax at BTK (setting [3]) is > 75%.

Regarding `Nc1ncnc2c1c(-c1ccc(Oc3ccccc3)cc1)nn2C1CCN(CCN2CCC(CN3CCN(c4ccc5c(c4)CN(C4CCC(=O)NC4=O)C5=O)CC3)CC2)CC1` (stereo not drawn) [Compound 454, 3-(5-(4-((1-(2-(4-(4-amino-3-(4-phenoxyphenyl)-1H-pyrazolo[3,4-d]pyrimidin-1-yl)piperidin-1-yl)ethyl)piperidin-4-yl)methyl)piperazin-1-yl)-1-oxoisoindolin-2-yl)piperidine-2,6-dione], the IC50 in the experiment on Mino cells (Homo sapiens, MINO) was > 10000 nM; in the experiment on JeKo-1 cells (Homo sapiens), 1000 to 10000 nM. In addition, the DC50 at BTK (setting [2]) was > 50 nM. The Dmax on BTK (setting [3]) was > 50%.

As for `NC(=O)c1c(-c2ccc(Oc3ccccc3)cc2)nn2c1NCC[C@H]2C1CCN(CC2CCN(CC3CCN(c4ccc5c(c4)CN(C4CCC(=O)NC4=O)C5=O)CC3)CC2)CC1` (stereo partly drawn) [Compound 330, (7S)-7-(1-((1-((1-(2-(2,6-dioxopiperidin-3-yl)-1-oxoisoindolin-5-yl)piperidin-4-yl)methyl)piperidin-4-yl)methyl)piperidin-4-yl)-2-(4-phenoxyphenyl)-4,5,6,7-tetrahydropyrazolo[1,5-a]pyrimidine-3-carboxamide], the IC50 in the experiment on Mino cells (Homo sapiens, MINO) lay in the range of 1000 to 10000 nM; in the experiment on JeKo-1 cells (Homo sapiens), 1000 to 10000 nM. Besides, at BTK, the Dmax is > 75%. On BTK (setting [1]), this compound registered a 50% degradation concentration (DC50) of 10 to 50 nM.

The term Dmax denotes the largest share of the target that was removed. What is called DC50 is the midpoint of the concentration-degradation curve.

The record behind these values is patent publication US12139492B2 (Endotarget Inc., priority 2021, dated 2024).
